Measurements from US8999994B2, “Derivatives of propargylamine having neuroprotective capacity for the treatment of Alzheimer's and Parkinson's diseases” (Consejo Superior de Investigaciones Cientificas, priority 2010, dated 2015).
Like-named read-outs stand apart in the source and are kept apart here.

Assays:
Format in all cases: biochemical
MAO-B = MAO-B (Rattus norvegicus (Rat), UniProt P19643); assay: Inhibition of monoamine oxidase B (Fowler and Tipton radiometric method, rat liver mitochondria)
Chain of MAO-B (P19643 whole entry): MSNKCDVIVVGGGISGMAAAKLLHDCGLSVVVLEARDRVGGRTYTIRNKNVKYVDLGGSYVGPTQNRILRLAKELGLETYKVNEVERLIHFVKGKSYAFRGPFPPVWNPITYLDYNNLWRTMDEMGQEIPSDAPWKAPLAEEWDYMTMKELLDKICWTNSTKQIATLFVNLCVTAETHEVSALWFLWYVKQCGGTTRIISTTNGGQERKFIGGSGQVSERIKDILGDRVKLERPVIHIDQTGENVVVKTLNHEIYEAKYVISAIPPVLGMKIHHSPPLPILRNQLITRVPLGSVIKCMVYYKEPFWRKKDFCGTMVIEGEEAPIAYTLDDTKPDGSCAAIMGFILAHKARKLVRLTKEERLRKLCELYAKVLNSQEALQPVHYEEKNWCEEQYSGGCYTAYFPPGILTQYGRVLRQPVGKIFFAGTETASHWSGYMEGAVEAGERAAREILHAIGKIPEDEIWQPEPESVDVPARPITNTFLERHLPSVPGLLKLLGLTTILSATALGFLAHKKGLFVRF

AChE (electric eel) = AChE (electric eel) (Electrophorus electricus (Electric eel) (Gymnotus electricus), UniProt O42275); settings: acetylthiocholine iodide […], 10 min incubation, mean ± SEM, read-out: IC50 (μM) ChE EeAChE
Chain of AChE (electric eel) (O42275 whole entry, looked up): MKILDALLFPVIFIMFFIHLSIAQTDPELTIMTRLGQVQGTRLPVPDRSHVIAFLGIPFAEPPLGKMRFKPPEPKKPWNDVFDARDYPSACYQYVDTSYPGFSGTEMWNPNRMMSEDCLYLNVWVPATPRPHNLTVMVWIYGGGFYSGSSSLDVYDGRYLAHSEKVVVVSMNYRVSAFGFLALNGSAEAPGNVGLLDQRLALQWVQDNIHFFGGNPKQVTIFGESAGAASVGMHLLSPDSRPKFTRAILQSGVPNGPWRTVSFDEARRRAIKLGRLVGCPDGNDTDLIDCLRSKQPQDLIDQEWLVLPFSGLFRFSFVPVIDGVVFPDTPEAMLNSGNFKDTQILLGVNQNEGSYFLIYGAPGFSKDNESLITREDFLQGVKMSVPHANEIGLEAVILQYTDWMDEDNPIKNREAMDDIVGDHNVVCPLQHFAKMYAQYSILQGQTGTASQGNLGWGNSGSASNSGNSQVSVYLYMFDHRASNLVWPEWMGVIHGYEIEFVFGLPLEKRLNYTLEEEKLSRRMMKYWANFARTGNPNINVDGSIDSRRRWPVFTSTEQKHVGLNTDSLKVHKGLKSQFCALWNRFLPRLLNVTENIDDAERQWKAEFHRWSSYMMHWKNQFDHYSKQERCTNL

MAO-A = MAO-A (Rattus norvegicus (Rat), UniProt P21396); assay: Inhibition of monoamine oxidase A (Fowler and Tipton radiometric method, rat liver mitochondria)
Chain of MAO-A (P21396 whole entry): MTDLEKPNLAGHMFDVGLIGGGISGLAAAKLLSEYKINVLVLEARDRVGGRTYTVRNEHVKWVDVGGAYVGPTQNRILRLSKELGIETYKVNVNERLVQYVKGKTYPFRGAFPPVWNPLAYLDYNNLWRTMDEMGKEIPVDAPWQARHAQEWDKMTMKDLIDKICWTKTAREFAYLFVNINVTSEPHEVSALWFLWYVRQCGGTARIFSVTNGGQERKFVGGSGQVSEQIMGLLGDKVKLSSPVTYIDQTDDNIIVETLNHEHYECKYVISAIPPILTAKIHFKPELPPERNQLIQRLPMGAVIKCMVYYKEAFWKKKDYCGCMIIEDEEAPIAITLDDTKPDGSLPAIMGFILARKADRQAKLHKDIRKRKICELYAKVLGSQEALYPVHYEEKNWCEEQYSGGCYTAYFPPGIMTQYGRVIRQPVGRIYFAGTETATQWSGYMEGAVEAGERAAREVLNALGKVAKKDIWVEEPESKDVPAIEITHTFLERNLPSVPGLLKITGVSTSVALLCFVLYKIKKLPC

[1] = rat liver mitochondria, [14C]-phenylethylamine 20 μM substrate, 30 min incubation, mean ± SEM
[2] = rat liver mitochondria, [14C]-5-HT 100 μM substrate, 30 min incubation, mean ± SEM, read-out: IC50 (μM) MAO MAO-A

Row | Structure (SMILES) | IC50 (MAO-B; [1]) | IC50 (AChE (electric eel)) | IC50 (MAO-A; [2]) | IC50 (MAO-A; read-out: IC50 (μM) MAO MAO-A) | IC50 (MAO-A) | IC50 (MAO-B) | IC50 (μM) MAO MAO-B (MAO-B)
1 | C#CCN(C)Cc1cc2cc(OCCN3CCC(Cc4ccccc4)CC3)ccc2n1C [Compound 1, N-{(5-[2-(4-benzylpiperidin-1-yl)ethoxy)-1-methyl-1H-indol-2-yl]methyl}-N-methylprop-2-yn-1-amine] | 1.46 ± 0.499 µM | > 100 µM | 0.143 ± 0.0443 µM |  |  |  | 
2 | C#CCN(C)Cc1cc2cc(OCCCN3CCC(Cc4ccccc4)CC3)ccc2n1C [Compound 2, N-{(5-[3-(4-benzylpiperidin-1-yl)propoxy)-1-methyl-1H-indol-2-yl]methyl}-N-methylprop-2-yn-1-amine] | 11.3 ± 2.38 µM | 18.1 ± 0.4 µM |  | 0.0654 ± 0.0174 µM |  |  | 
3 | C#CCN(C)Cc1cc2cc(OCCCN3CCN(Cc4ccccc4)CC3)ccc2n1C [Compound 3, N-{(5-[3-(4-benzylpiperazin-1-yl)propoxy)-1-methyl-1H-indol-2-yl]methyl}-N-methylprop-2-yn-1-amine] | 1.64 ± 0.707 µM | > 100 µM |  |  | 0.0305 ± 0.0135 µM |  | 
4 | C#CCN(C)Cc1cc2cc(OCC3CCN(Cc4ccccc4)CC3)ccc2n1C [Compound 4, N-{(5-((1-benzylpiperidin-4-yl)methoxy)-1-methyl-1H-indol-2-yl)methyl}-N-methylprop-2-yn-1-amine] |  | 0.31 ± 0.04 µM | 0.0822 ± 0.0032 µM |  |  | 0.745 ± 0.0199 µM | 
5 | C#CCN(C)Cc1cc2cc(OCCC3CCN(Cc4ccccc4)CC3)ccc2n1C [Compound 5, N-((5-(2-(1-benzylpiperidin-4-yl)ethoxy)-1-methyl-1H-indol-2-yl)methyl)-N-methylprop-2-yn-1-amine] |  | 0.42 ± 0.04 µM | 0.0067 ± 0.0018 µM |  |  | 0.13 ± 0.0414 µM | 
6 | C#CCN(C)Cc1cc2cc(OCCCC3CCN(Cc4ccccc4)CC3)ccc2n1C [Compound 6, N-((5-[3-(1-benzylpiperidin-4-yl)propoxy)-1-methyl-1H-indol-2-yl)methyl)-N-methylprop-2-yn-1-amine] | 0.0431 ± 0.0079 µM |  | 0.0052 ± 0.0011 µM |  |  |  | 
7 | C#CCN(C)Cc1cc2cc(OCCCCC3CCN(Cc4ccccc4)CC3)ccc2n1C [Compound 7, N-((5-[4-(1-benzylpiperidin-4-yl)butoxy)-1-methyl-1H-indol-2-yl)methyl)-N-methylprop-2-yn-1-amine] | 2.77 ± 0.116 µM | 0.26 ± 0.07 µM | 0.0105 ± 0.0044 µM |  |  |  | 
8 | Nc1c2c(nc3ccccc13)CCCC2 [Tacrine, tacrine, reference compound] |  |  |  |  |  |  | 499.6 ± 12.8 µM
